Test results: patent publication US20240210412A1, “SULFONYL-TRIAZOLE COMPOUNDS USEFUL AS LIGANDS AND INHIBITORS OF PROSTAGLANDIN REDUCTASE 2” (University of Virginia Patent Foundation, priority 2021, published 2024)

How the values were obtained:
[1] = molecular target: T1, PTGR2 (Homo sapiens, UniProt Q8N8N7); test: in vitro gel-based chemical proteomics competition, RJS-1027 probe; type: binding; details: inhibitor 0.5 μM, RJS-1027 1 μM, HEK293T soluble proteome
T1 construct: host or cells: HEK293T
T1 sequence (Q8N8N7 whole entry): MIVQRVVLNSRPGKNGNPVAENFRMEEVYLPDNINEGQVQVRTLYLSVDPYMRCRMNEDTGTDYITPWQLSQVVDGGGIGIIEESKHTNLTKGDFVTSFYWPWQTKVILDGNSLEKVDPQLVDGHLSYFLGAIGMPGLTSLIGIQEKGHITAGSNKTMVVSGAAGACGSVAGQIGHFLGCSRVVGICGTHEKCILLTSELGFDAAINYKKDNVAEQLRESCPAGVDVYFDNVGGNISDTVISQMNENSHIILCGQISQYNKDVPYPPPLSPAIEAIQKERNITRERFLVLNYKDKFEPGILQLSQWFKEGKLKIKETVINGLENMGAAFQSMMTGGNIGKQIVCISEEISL
Method: Cell pellets were lysed in PBS buffer (EDTA free) by sonicating 3 times for 1 second×20% amplitude. The lysate was fractionated by centrifuging at 100,000×g for 45 min at 4° C., separating membrane and soluble fractions. Only the soluble fraction was used for in vitro and in situ experiments. Protein concentrations were measured using the Bio-Rad DC protein assay, and fractions were diluted to a concentration of 2 mg/mL in PBS. For live cell treated samples, 50 μL aliquots of proteome were used for gel experiments. For in vitro experiments, 48 μL aliquots of cell lysate were used for each inhibitor before adding 1 μL of 50× inhibitor stock (1 μM final) and incubated for 30 minutes at 37° C., then 1 μL of 50×probe stock (1 μM final) was added and the lysate incubated for 30 minutes at 37° C. […] 30 μL of each sample were separated by SDSPAGE and analyzed by in-gel fluorescence scanning for the rhodamine azide tag. […]
FIG. 9A is an image of an in vitro gel-based chemical proteomics assay using RJS-1027 (1 μM) as a probe to measure competition of binding PTGR2 with an inhibitor (0.5 μM). […] Quantitative comparison of inhibitor competition with probe labeling normalized to the negative control HHS-0101 is shown in FIG. 9B. […] Quantitative comparison of RJG-2036 competition with probe labeling normalized to the negative control HHS-0101 is shown in FIG. 9D.

[2] = molecular target: T1, PTGR2; test: gel-based ABPP, HHS-475 probe, HEK293T cells expressing recombinant PTGR2; type: cell-based; details: 25 μM-0.1 μM, 2 h; HHS-475 25 μM 2 h; compared with AMC-0702, HHS-0701
Method: HEK293T cells at 30-50% confluency were transfected with 2.6 μg of FAH or PTGR2 plasmid DNA in a serum-free media/polyethyleneimine solution for 48 hrs. The cells were washed once with warm, sterile DPBS (1×, 5 mL), and then 10 mL of serum-free media (supplemented with 1% L-glutamine) containing either DMSO or SuTEx fragment (in DMSO) was added. After 2 hrs, the cells were treated with 100 μM of SuTEx alkyne probe (HHS-475, 10 μL of 1000× DMSO stock) and incubated for an additional 2 hrs. The media was aspirated and cells washed with cold PBS (5 mL) and harvested. Cells were spun at 500×g for 5 min at 4° C. and supernatant was removed. Pellets were resuspended in 1 mL of cold DPB S and spun at 1,400×g for 3 min at 4° C. and supernatant was removed. The cells were lysed in PBS by sonication and fractionated (100,000×g, 45 min, 4° C.). The soluble fraction was diluted to 1 mg/mL in PBS and 49 μL was used for analysis. […] The samples were analyzed by SDS-PAGE (30 μL) and imaged by in-gel fluorescence scanning.
Confirmatory studies were also performed on prostaglandin reductase 2 (PTGR2) because of its role in the reduction of the bioactive lipid, 15-keto-PGE2^[17]. […] The remaining fluorescent signal detected on PTGR2 Y100F mutant protein is likely due to probe labeling of additional tyrosine sites identified on wild-type protein.
To assess the PTGR2 inhibitory activity of AMC-0702 and AMC-0703, HEK293T cells expressing PTGR2 were pretreated with vehicle, HHS-0101 (25 μM), HHS-0701 (25 μM), AMC-0702 (25 μM-0.1 μM), or AMC-0703 (25 μM-0.1 μM) for 2 hours followed by HHS-475 probe labelling in live cells (25 μM, 2 hours). Cells were lysed and probe-modified PTGR2 in proteomes detected by copper-catalyzed azide-alkyne cycloaddition conjugation of rhodamine-azide, SDS-PAGE, and in-gel fluorescence scanning. Inhibitory activity of compounds is determined by reductions in fluorescent band intensity from HHS-475 probe labeling of proteins detected in proteomes. […]

[3] = molecular target: T2, recombinant prostaglandin reductase 2 (PTGR2) (Homo sapiens, UniProt Q8N8N7); test: in situ gel-based chemical proteomics competition, RJS-1027 probe; type: cell-based; details: RJS-1027 1 μM, normalized to PTGR2 WT, two biological replicates, read-out: 50% inhibitory concentration (IC50), competition with probe labeling
T2 construct: host or cells: HEK293T
T2 sequence (Q8N8N7 whole entry): as above
Method: HEK293T cells were grown to 30-40% confluency and transiently transfected with wild type PTGR2 or Y100F PTGR2 mutant plasmid or DMSO by dissolving 20 μL of PEI (1 mg/mL) and 2.6 μg of plasmid in 0.6 mL of serum-free DMEM media. Transfected HEK293T cells were incubated at 37° C. with 5% CO2 and were harvested for in vitro experiments. For in situ experiments, cells were treated with either DMSO or inhibitors at a final concentration of 1 μM, or the indicated concentration, of inhibitors from a 1,000× stock in serum-free media. Cells were subsequently incubated at 37° C. with 5% CO2 for 2 hours, followed by treatment with DMSO or probe at a final concentration of 1 μM from a 1,000× stock in serum-free media. Cells were harvested and pelleted at 400×g for 5 min and the supernatant was decanted. […]
Cell pellets were lysed in PBS buffer (EDTA free) by sonicating 3 times for 1 second×20% amplitude. […] Protein concentrations were measured using the Bio-Rad DC protein assay, and fractions were diluted to a concentration of 2 mg/mL in PBS. […] 30 μL of each sample were separated by SDSPAGE and analyzed by in-gel fluorescence scanning for the rhodamine azide tag. […]
Anti-flag and GAPDH western blots are shown below the long gel and were performed separately. Quantitation of RJG-2036 competition with probe labeling normalized to the PTGR2 WT with RJS-1027 as a probe is shown in FIG. 10C.

competition of probe binding to PTGR2 [1] | potency against PTGR2 (reduction of HHS-475 probe labeling) [2] | IC50 [3] [nM] | SMILES
potent inhibitors | highest potency against PTGR2 |  | COc1ccccc1N1CCN(C(=O)c2ccc(S(=O)(=O)n3cncn3)cc2)CC1 [AMC-0703, (4-((1H-1,2,4-triazol-1-yl)sulfonyl)phenyl)(4-(2-methoxyphenyl)piperazin-1-yl)methanone]
potent inhibitors |  |  | COc1ccccc1N1CCN(C(=O)c2ccc(S(=O)(=O)n3cnc(-c4cccnc4)n3)cc2)CC1 [RJG-1189, (4-(2-methoxyphenyl)piperazin-1-yl)(4-((3-(pyridin-3-yl)-1H-1,2,4-triazol-1-yl)sulfonyl)phenyl)methanone]
 |  | 89.5 | COc1ccccc1N1CCN(C(=O)c2cccc(S(=O)(=O)n3cncn3)c2)CC1 [RJG-2036, (3-((1H-1,2,4-triazol-1-yl)sulfonyl)phenyl)(4-(2-methoxyphenyl)piperazin-1-yl)methanone]
